# According to patent US10512268B2, “Herbicidal compounds” (Syngenta Participations AG, priority 2015, dated 2019):
# Tests used:
# Type in all cases: in vivo
# Lolium perenne (LOLPE) [1] = experiment: Further testing, pre-emergence application; conditions: 1000 g/h, after 13 days
# Experimental: (§1) Seeds of a variety of test species are sown in standard soil in pots (Lolium perenne (LOLPE), Solanum nigrum (SOLNI), Amaranthus retoflexus (AMARE), Setaria faberi (SETFA), Echinochloa crus-galli (ECHCG), Ipomoea hederacea (IPOHE)). After cultivation for one day (pre-emergence) or after 8 days cultivation (post-emergence) under controlled conditions in a glasshouse (at 24/16° C., day/night; 14 hours light; 65% humidity), the plants are sprayed with an aqueous spray solution derived from the formulation of the technical active ingredient in acetone/water (50:50) solution containing 0.5% Tween 20 (polyoxyethelyene sorbitan monolaurate, CAS RN 9005-64-5). Compounds are applied at 1000 g/h unless otherwise stated. The test plants are then grown in a glasshouse under controlled conditions in a glasshouse (at 24/16° C., day/night; 14 hours light; 65% humidity) and watered twice daily. After 13 days for pre and post-emergence, the test is evaluated for the percentage damage caused to the plant. The biological activities are shown in the following table on a five point scale (5=80-100%; 4=60-79%; 3=40-59%; 2=20-39%; 1=0-19%).
# Solanum nigrum (SOLNI) [2] = experiment: Further testing, pre-emergence application; conditions: 1000 g/h, after 13 days
# Experimental: as §1
# [3] = test system: Amaranthus retoflexus (AMARE); experiment: Further testing, pre-emergence application; conditions: 1000 g/h, after 13 days
# Experimental: as §1
# Setaria faberi (SETFA) [4] = experiment: Further testing, pre-emergence application; conditions: 1000 g/h, after 13 days
# Experimental: as §1
# [5] = test system: Echinochloa crus-galli (ECHCG); experiment: Further testing, pre-emergence application; conditions: 1000 g/h, after 13 days
# Experimental: as §1
# [6] = test system: Ipomoea hederacea (IPOHE); experiment: Further testing, pre-emergence application; conditions: 1000 g/h, after 13 days
# Experimental: as §1
# Lolium perenne (LOLPE) [7] = experiment: Further testing, post-emergence application; conditions: 1000 g/h, after 13 days
# Experimental: as §1
# Solanum nigrum (SOLNI) [8] = experiment: Further testing, post-emergence application; conditions: 1000 g/h, after 13 days
# Experimental: as §1
# [9] = test system: Amaranthus retoflexus (AMARE); experiment: Further testing, post-emergence application; conditions: 1000 g/h, after 13 days
# Experimental: as §1
# Setaria faberi (SETFA) [10] = experiment: Further testing, post-emergence application; conditions: 1000 g/h, after 13 days
# Experimental: as §1
# [11] = test system: Echinochloa crus-galli (ECHCG); experiment: Further testing, post-emergence application; conditions: 1000 g/h, after 13 days
# Experimental: as §1
# [12] = test system: Ipomoea hederacea (IPOHE); experiment: Further testing, post-emergence application; conditions: 1000 g/h, after 13 days
# Experimental: as §1
# [13] = test system: Euphorbia heterophylla (EPHHL); experiment: Comparative testing, glasshouse herbicide test, spray one day after sowing
# Experimental: (§2) Seeds of a variety of test species are sown in standard soil in pots. After cultivation for one day under controlled conditions in a glasshouse (at 24/16° C., day/night; 14 hours light; 65% humidity), an aqueous spray solution derived from the formulation of the technical active ingredient in 0.6 ml acetone and 45 ml formulation solution containing 10.6% Emulsogen EL (Registry number 61791-12-6), 42.2% N-methyl pyrrolidone, 42.2% dipropylene glycol monomethyl ether (CAS RN 34590-94-8) and 0.2% X-77 (CAS RN 11097-66-8) is applied.
# (§3) The test plants are then grown in a glasshouse under controlled conditions in a glasshouse (at 24/16° C., day/night; 14 hours light; 65% humidity) and watered twice daily. After 21 days, the test is evaluated (100=total damage to plant; 0=no damage to plant). Test plants (weed species) include: Alopecurus myosuroides (ALOMY), Bidens pilosa (BIDPI), Euphorbia heterophylla (EPHHL), Lolium perenne (LOLPE), Panicum milaceum (PANMI), Sida spinosa (SIDSP) and Stellaria media STEME).
# Lolium perenne (LOLPE) [14] = experiment: as above
# Experimental: as §2, §3
# [15] = test system: Alopecurus myosuroides (ALOMY); experiment: as above
# Experimental: as §2, §3
# Sida spinosa (SIDSP) = experiment: as above
# Experimental: as §2, §3
# Stellaria media (STEME) = experiment: as above
# Experimental: as §2, §3
# Bidens pilosa (BIDPI) = experiment: as above
# Experimental: as §2, §3
# Panicum milaceum (PANMI) = experiment: as above
# Experimental: as §2, §3
# [16] = Rate 125, evaluated after 21 days
# [17] = Rate 250, evaluated after 21 days
SMILES,"percentage damage caused to the plant, five point scale (Lolium perenne (LOLPE) [1])","percentage damage caused to the plant, five point scale (Solanum nigrum (SOLNI) [2])","percentage damage caused to the plant, five point scale [3]","percentage damage caused to the plant, five point scale (Setaria faberi (SETFA) [4])","percentage damage caused to the plant, five point scale [5]","percentage damage caused to the plant, five point scale [6]","percentage damage caused to the plant, five point scale (Lolium perenne (LOLPE) [7])","percentage damage caused to the plant, five point scale (Solanum nigrum (SOLNI) [8])","percentage damage caused to the plant, five point scale [9]","percentage damage caused to the plant, five point scale (Setaria faberi (SETFA) [10])","percentage damage caused to the plant, five point scale [11]","percentage damage caused to the plant, five point scale [12]",other results
CCn1nnnc1NC(=O)c1nn(C)c(=O)c(C2CCCCC2)c1Cl [Compound 1.002],5 (5=80-100%),5 (5=80-100%),5 (5=80-100%),5 (5=80-100%),5 (5=80-100%),5 (5=80-100%),5 (5=80-100%),5 (5=80-100%),5 (5=80-100%),5 (5=80-100%),5 (5=80-100%),5 (5=80-100%),
CCCn1nnnc1NC(=O)c1nn(C)c(=O)c(C2CCCCC2)c1Cl [Compound 1.003],5 (5=80-100%),5 (5=80-100%),5 (5=80-100%),5 (5=80-100%),5 (5=80-100%),5 (5=80-100%),4 (4=60-79%),5 (5=80-100%),5 (5=80-100%),5 (5=80-100%),5 (5=80-100%),5 (5=80-100%),
Cn1nnnc1NC(=O)c1nn(C)c(=O)c(C2CCCC2)c1Cl [Compound 1.005],5 (5=80-100%),5 (5=80-100%),5 (5=80-100%),5 (5=80-100%),5 (5=80-100%),5 (5=80-100%),5 (5=80-100%),5 (5=80-100%),5 (5=80-100%),5 (5=80-100%),5 (5=80-100%),5 (5=80-100%),
CCCn1nnnc1NC(=O)c1nn(C)c(=O)c(C2CCCC2)c1Cl [Compound 1.006],5 (5=80-100%),5 (5=80-100%),5 (5=80-100%),5 (5=80-100%),5 (5=80-100%),4 (4=60-79%),5 (5=80-100%),5 (5=80-100%),5 (5=80-100%),5 (5=80-100%),5 (5=80-100%),5 (5=80-100%),
Cn1nnnc1NC(=O)c1nn(C)c(=O)c(C2CCC(C)(C)CC2)c1Cl [Compound 1.017],5 (5=80-100%),5 (5=80-100%),5 (5=80-100%),5 (5=80-100%),5 (5=80-100%),4 (4=60-79%),5 (5=80-100%),5 (5=80-100%),5 (5=80-100%),5 (5=80-100%),5 (5=80-100%),5 (5=80-100%),
CC1CCC(c2c(Cl)c(C(=O)Nc3nnnn3C)nn(C)c2=O)CC1 (centres unmarked) [Compound 1.022],5 (5=80-100%),5 (5=80-100%),5 (5=80-100%),5 (5=80-100%),5 (5=80-100%),5 (5=80-100%),5 (5=80-100%),5 (5=80-100%),5 (5=80-100%),5 (5=80-100%),5 (5=80-100%),5 (5=80-100%),
Cn1nnnc1NC(=O)c1nn(C)c(=O)c(C2CCCCC2)c1Cl [Compound 1.030],5 (5=80-100%),5 (5=80-100%),5 (5=80-100%),5 (5=80-100%),5 (5=80-100%),2 (2=20-39%),5 (5=80-100%),5 (5=80-100%),5 (5=80-100%),5 (5=80-100%),5 (5=80-100%),4 (4=60-79%),
Cn1nnnc1NC(=O)c1nn(C)c(=O)c(C2CCCCC2)c1Cl [Compound 1.031],3 (3=40-59%),5 (5=80-100%),5 (5=80-100%),4 (4=60-79%),5 (5=80-100%),4 (4=60-79%),4 (4=60-79%),5 (5=80-100%),5 (5=80-100%),5 (5=80-100%),4 (4=60-79%),4 (4=60-79%),
"Cn1nc(C(=O)C2C(=O)CCCC2=O)c(Cl)c(C2CCCCC2)c1=O [Compound A, 2-(4-chloro-5-cyclohexyl-1-methyl-6-oxo-pyridazine-3-carbonyl)cyclohexane-1,3-dione, reference compound]",,,,,,,,,,,,,"damage to plant (100=total damage to plant; 0=no damage to plant) [13, 16]: 0; damage to plant (100=total damage to plant; 0=no damage to plant) [13, 17]: 20; damage to plant (100=total damage to plant; 0=no damage to plant) (Lolium perenne (LOLPE) [14]; [16]): 10; damage to plant (100=total damage to plant; 0=no damage to plant) (Lolium perenne (LOLPE) [14]; [17]): 20; damage to plant (100=total damage to plant; 0=no damage to plant) [15, 16]: 0; damage to plant (100=total damage to plant; 0=no damage to plant) [15, 17]: 20; damage to plant (100=total damage to plant; 0=no damage to plant) (Sida spinosa (SIDSP); [16]): 0; damage to plant (100=total damage to plant; 0=no damage to plant) (Sida spinosa (SIDSP); [17]): 0; damage to plant (100=total damage to plant; 0=no damage to plant) (Stellaria media (STEME); [16]): 50; damage to plant (100=total damage to plant; 0=no damage to plant) (Stellaria media (STEME); [17]): 60; damage to plant (100=total damage to plant; 0=no damage to plant) (Bidens pilosa (BIDPI); [16]): 0; damage to plant (100=total damage to plant; 0=no damage to plant) (Bidens pilosa (BIDPI); [17]): 40; damage to plant (100=total damage to plant; 0=no damage to plant) (Panicum milaceum (PANMI); [16]): 0; damage to plant (100=total damage to plant; 0=no damage to plant) (Panicum milaceum (PANMI); [17]): 0"
